Test results taken from US6555714B1, “Inhibitors of hydroxyphenylpyruvate dioxygenase and an assay for identification of inhibitors” (Hoechst Aktiengesellschaft, priority 1993, dated 2003).
Several values for one entry are separate records, joined by “and”; a condition that tells them apart may be missing. Equal values may be shown once.

Columns and labels:
[1] = biological target: anabolic plant HPPD (p-hydroxyphenylpyruvate dioxygenase) from maize (Zea mays, UniProt A0A1D6H1G0); type: biochemical; conditions: for IC50: Table 1 of compounds of formula (I), HPPD inhibition, IC50 is a molar concentration
Experimental: A modified form of the method for measuring catabolic HPPDs from human liver has been described by Lindblad (Lindblad, B. (1971) Clin. Chim. Acta 34, 113-121). End-point measurements are used in this case for detecting ^14C—CO2, which is liberated from ^14C-p-hydroxyphenylpyruvate by the enzymatic activity of HPPD.
To enrich the anabolic HPPD from plant tissues, young etiolated maize plants were homogenized in extraction buffer (20 mM phosphate buffer pH 7.0; 0.14 M KCl; 0.1 mg/ml glutathione and 1% insoluble polyvinylpyrrolidone) for 3×10 seconds, for example in a Waring blender. The extract was filtered (all other isolation steps were carried out at 4° C.) and centrifuged (20 minutes; 10,000 g). The supernatant was subjected to fractional ammonium sulfate precipitation. […] At this stage, it was possible to store the enzyme at −80° C. following dialysis in a suitable buffer, such as, for example, 20 mM phosphate buffer pH 7.0; 0.14 M KCl; 0.1 mg/ml glutathione.
The enzyme assays were performed in 20 ml polyethylene screw-top containers. Two hypodermic needles (0.9×40 mm) were pushed through the screw-top cap. One of the hypodermic needles was bent to form a hook onto which a small filter paper disk of diameter 10 mm was placed. The filter paper was moistened with 25 μl of methylbenzethonium hydroxide (Sigma). The second hypodermic needle was used for injecting start and stop solution into the screw-top container.
The enzyme reaction mix contained:
1 ml of 0.1 M phosphate buffer, pH 7.3;
2 g/l of bovine liver catalase;
100 μl of a mixture of 3 mM dichlorophenol-indophenol and
150 mM glutathione (reduced);
25 μl of acetone (or potential inhibitors dissolved in acetone) and
enzyme in a total volume of 1,635 μl.
After preincubation for 5 minutes at 30° C., the reaction was started by injecting 800 μl of ^14C-p-hydroxyphenylpyruvate. The reaction was stopped by injecting 600 μl of 1 N H2SO4, incubation was continued for 15 minutes, and the radioactivity which was liberated was determined on the small filter paper disks in a liquid scintillation counter.
(§1) FEBS-Letters, 1993, 318 (2), 162-166.

Lemna gibba [2] = assay: Growth inhibition of Lemna; type: in vivo; conditions: for inhibition at 100 µM: 10^−4 M; for inhibition at 10 µM: 10^−5 M; for inhibition at 1 µM: 10^−6 M
Source text: as §1

[3] = test system: plastoquinone biosynthesis in wheat; assay: Incorporation of radioactivity from 14C-tyrosine into plastoquinone in wheat (thin-layer chromatography); type: in vivo; conditions: wheat plants sprayed with 100 g/ha in screening formulation, FIG. 1
Experimental: Thin-layer chromatography analysis of the incorporation of radioactivity from ^14C-tyrosine into plastoquinone. […] The lipophilic metabolites of the wheat were extracted using chloroform, separated on silica gel 60 HPTLC plates using chloroform: diethyl ether (99:1), and the radioactivity was analyzed by thin-layer scanner.

Lemna gibba [4] = assay: Neutralization of the effect of SC-0051 by homogentisic acid, number of Lemna gibba plants; type: in vivo; conditions: day six
Experimental: HPPD catalyzes the transformation of p-hydroxyphenylpyruvate to homogentisic acid. If HPPD inhibition is responsible for the herbicidal activity of an inhibitor, then it should be possible to neutralize the herbicidal effect by supplementation with homogentisic acid. […] The plant was grown in a sterile aqueous medium supplemented as described in Table 1.
Batches of three Lemna plants in 100 ml of sterile medium were incubated for six days with sterile-filtered supplements. […] The number of newly formed plants was determined on day six.

Chain of anabolic plant HPPD (p-hydroxyphenylpyruvate dioxygenase) from maize (A0A1D6H1G0 entry or part of it): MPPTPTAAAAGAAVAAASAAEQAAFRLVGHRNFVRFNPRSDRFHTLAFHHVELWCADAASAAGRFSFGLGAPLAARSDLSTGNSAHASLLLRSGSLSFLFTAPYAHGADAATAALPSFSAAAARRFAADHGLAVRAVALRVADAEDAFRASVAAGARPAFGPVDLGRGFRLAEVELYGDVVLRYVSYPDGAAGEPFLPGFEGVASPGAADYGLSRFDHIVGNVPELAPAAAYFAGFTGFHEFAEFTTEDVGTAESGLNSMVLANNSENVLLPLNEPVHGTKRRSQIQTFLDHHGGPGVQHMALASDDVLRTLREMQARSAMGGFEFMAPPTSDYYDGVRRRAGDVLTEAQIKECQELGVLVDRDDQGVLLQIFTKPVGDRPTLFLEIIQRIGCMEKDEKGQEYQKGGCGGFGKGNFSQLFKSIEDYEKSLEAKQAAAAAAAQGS

“2-(2,4-Dichlorobenzoyl)-1,4-quinone [Example No. 91]” showed an IC50 [1] of 18 nM.
Compound `Cc1cc(Cl)cc(C(=O)c2ccc(S(C)(=O)=O)cc2Cl)c1O` [Example No. 100, 2,5′-Dichloro-2′-hydroxy-3′-methyl-4-methylsulfonylbenzophenone] has an inhibition at 100 µM (Lemna gibba [2]) of 98%, an inhibition at 10 µM (Lemna gibba [2]) of 96% and an inhibition at 1 µM (Lemna gibba [2]) of 92%. For the same compound, the melting point was 175 to 180 °C and the IC50 [1] was 6.2 nM.
For `CS(=O)(=O)c1ccc(C(=O)c2c(O)cc(Cl)cc2Cl)c(Cl)c1` [Example No. 183, 2,2′,4′-Trichloro-6′-hydroxy-4-methylsulfonylbenzophenone], the inhibition at 100 µM (Lemna gibba [2]) was 98%, the inhibition at 10 µM (Lemna gibba [2]) was 82% and the inhibition at 1 µM (Lemna gibba [2]) was 81%. The melting point was 123 to 126 °C and 123 to 125 °C and the IC50 [1] was 4.8 nM.
With `CS(=O)(=O)c1ccc(C(=O)C2C(=O)CCCC2=O)c(Cl)c1` [SC-0051, 2-(2-chloro-4-methanesulfonylbenzoyl)-1,3-cyclohexanedione] the “Plastoquinone biosynthesis (incorporation of radioactivity from tyrosine into plastoquinone)” value [3] was “inhibited”, the “Number of L. gibba plants” value (Lemna gibba [4]; 10^−7 M SC-0051, medium supplemented with 1 mM HGA) was 32 and the “Number of L. gibba plants” value (Lemna gibba [4]; 10^−7 M SC-0051, medium supplemented with 1 mM HPPD) was 2. The “Number of L. gibba plants” value (Lemna gibba [4]; 10^−7 M SC-0051, no supplementation of the medium, start three plants) was 3.
With `CC1(C)CON(Cc2ccccc2Cl)C1=O` [clomazone, reference compound] the “Inhibition of HPPD (in words)” value ([1]; partially purified maize HPPD, FIG. 2) was “no inhibitory action”.
For `CS(=O)(=O)c1ccc(C(=O)c2cc(C(=O)O)ccc2O)c(Cl)c1` [compound 88], the melting point was 254 to 256 °C and the IC50 [1] was 70 nM.
